{"source": "patent US20210315887A1", "about": "“METHODS OF ADMINISTERING THERAPY” (GALAPAGOS NV, priority 2018, published 2021)", "assay": "Phase I open-label drug-drug interaction study: single-dose plasma pharmacokinetics of compound 1 before and after repeat doses of rifampicin", "format": "in vivo, human", "conditions": "for Mean maximal compound 1 plasma concentration: from mean concentration-time profile; for Cmax / AUC(0-t): po, 600 mg; for Cmax: healthy male subjects; for concentration at 24 h: read-out: C24h", "experimental": "A phase I, open-label, non-randomized, drug-drug interaction study in healthy male subjects is done to evaluate the impact of repeat doses of rifampicin, on the single-dose pharmacokinetics (PK) of compound 1 as well as to evaluate the safety and tolerability of a single dose of compound 1 administered before or after oral doses of rifampicin.\nEighteen healthy male subjects received a single oral dose of 600 mg compound 1 on Day 1. From Days 2 to 11, 600 mg rifampicin was administered once daily (q.d.) to all subjects for 10 consecutive days. On Day 12, subjects received a single oral dose of 600 mg of compound 1 (see Table 1). A follow-up visit is conducted between days 15 and 18.\nOn days 1, 2, 12, 13 (i.e. 1, 2, 3, 4, 5, 6, 7, 8, 12 and 24 hours post compound 1 administration on day 1 and day 12) and at the follow-up visit, blood samples for PK assessment of compound 1 are taken. Blood samples of 2 mL for the determination of compound 1 levels in plasma are collected by venipuncture (or indwelling catheter) in the arm, into vacuum tubes containing lithium heparin and are immediately chilled (ice bath).\nWithin 30 min after blood collection, the plasma is separated by centrifugation at 4° C. for 10 min at circa 1,500 g and transferred into 2 polypropylene tubes with at least 400 μL of plasma in the first aliquot and the remaining volume in the second aliquot. After appropriate labeling, the plasma samples are stored in the clinical center at −20° C.±10° C. within 2 h following centrifugation and are protected from direct sunlight.\nPlasma concentrations were measured using validated liquid chromatography with tandem mass (LC/MS-MS) spectrometry methods with a limit of quantification of 1.00 ng/mL for compound 1, 20.0 mg/mL for cholesterol and 5.00 ng/mL for 4-β-hydroxycholesterol. Non-compartmental PK calculations are performed using Phoenix WinNonlin® (version 6.4).\nThe following parameters are determined for compound 1 from individual concentration-time profiles in plasma: • Cmax: maximum observed plasma concentration • tmax: time of occurrence of Cmax • AUC0-t: area under the plasma concentration-time curve from time zero till the time corresponding with the last observed quantifiable concentration, calculated by the linear up-logarithmic down trapezoidal rule • AUC0-24h: area under the plasma concentration-time curve from time zero till 24 h post-dose, calculated by the linear up-logarithmic down trapezoidal rule • C24h: plasma concentration observed at 24 h post-dose\nPlasma concentrations and PK parameters of compound 1 are listed by day (Day 1: compound 1 before multiple rifampin doses; Day 12: compound 1 after multiple rifampin doses) for each subject. Descriptive statistics are calculated by day for the plasma concentration and PK parameters. Mean (±SE) concentration-time profiles are generated by day.\nA mixed-effects model with day as fixed effect and subject as random effect is performed on the following natural log (ln)-transformed PK parameters of compound 1: Cmax, C24h, AUC0-t, and AUC0-24h. […] The 90% confidence interval (CI) of the point estimate is calculated using the mean square error of the analysis of variance.\nAs tmax is a discrete variable dependent on selected blood sampling times, day effect was assessed using a non-parametric test (Wilcoxon's signed-rank test).", "key": {"[1]": {"conditions": "point estimate of least-squares geometric means ratio, Day 12 relative to Day 1"}, "[2]": {"conditions": "rifampin 600 mg q.d. for 10 days, Day 12 vs Day 1"}}, "note": "Entries after “also recorded” stand apart in the source; their conditions may differ. Read-outs that look alike come from different tables or passages of the source.", "data": [{"smiles": "CCc1nc2c(C)cc(N3CCN(CC(=O)N4CC(O)C4)CC3)cn2c1N(C)c1nc(-c2ccc(F)cc2)c(C#N)s1", "note": "[Compound 1]", "values": [{"measurement": "Time post-dose at which mean maximal concentration is attained", "setting": "Day 1, single 600 mg oral dose", "value": 2, "unit": "h"}, {"measurement": "Mean maximal compound 1 plasma concentration", "setting": "Day 1, single 600 mg oral dose", "value": "7,870 ng/mL"}, {"measurement": "Time post-dose at which mean maximal concentration is attained", "setting": "Day 12, after multiple rifampin doses", "value": 2, "unit": "h"}, {"measurement": "Mean maximal compound 1 plasma concentration", "setting": "Day 12, single 600 mg oral dose after rifampin 600 mg q.d. 10 days", "value": "1,180 ng/mL"}, {"measurement": "Impact of multiple rifampin intake on compound 1 clearance", "setting": "Day 12 compared with Day 1", "value": "no impact"}, {"measurement": "Impact of multiple rifampin intake on apparent rate of elimination of compound 1", "setting": "Day 12 compared with Day 1, visual inspection of profiles", "value": "no impact"}, {"measurement": "Decrease of AUC0-24h by multiple rifampin intake", "setting": "Day 12 vs Day 1", "value": 89.2, "unit": "%"}, {"measurement": "Decrease of Cmax by multiple rifampin intake", "setting": "Day 12 vs Day 1", "value": 83.2, "unit": "%"}, {"measurement": "Bioavailability of compound 1 after multiple rifampin intake", "setting": "as shown by point estimates, Day 12 vs Day 1", "value": "markedly lower"}, {"measurement": "Elimination of compound 1 (shape of log-linear mean concentration-time profile)", "setting": "before and after multiple rifampin intake", "value": "biphasic"}, {"measurement": "Cmax", "setting": "male, human, plasma, single oral 600 mg compound 1, after multiple rifampin doses 600 mg q.d. 10 days (Day 12), N = 18, arithmetic mean", "value": 1440, "unit": "ng/mL"}, {"measurement": "Cmax", "setting": "male, human, plasma, single oral 600 mg compound 1, before multiple rifampin doses (Day 1), N = 18, arithmetic mean", "value": 8660, "unit": "ng/mL"}, {"measurement": "AUC(0-t)", "setting": "male, human, plasma, single oral 600 mg, after multiple rifampin doses (Day 12), N = 17, arithmetic mean, read-out: AUC0-24h", "value": 3750, "unit": "ng·h/mL"}, {"measurement": "AUC(0-t)", "setting": "male, human, plasma, single oral 600 mg, after multiple rifampin doses (Day 12), N = 18, arithmetic mean, read-out: AUC0-t", "value": 3570, "unit": "ng·h/mL"}, {"measurement": "AUC(0-t)", "setting": "male, human, plasma, single oral 600 mg, before multiple rifampin doses (Day 1), N = 18, arithmetic mean, read-out: AUC0-24h", "value": 36300, "unit": "ng·h/mL"}, {"measurement": "AUC(0-t)", "setting": "male, human, plasma, single oral 600 mg, before multiple rifampin doses (Day 1), N = 18, arithmetic mean, read-out: AUC0-t", "value": 36300, "unit": "ng·h/mL"}, {"measurement": "concentration at 24 h", "setting": "male, human, plasma, single oral 600 mg, after multiple rifampin doses (Day 12), N = 18, arithmetic mean", "value": 1.69, "unit": "ng/mL"}, {"measurement": "concentration at 24 h", "setting": "male, human, plasma, single oral 600 mg, before multiple rifampin doses (Day 1), N = 18, arithmetic mean", "value": 83.4, "unit": "ng/mL"}, {"measurement": "Tmax", "setting": "male, human, plasma, single oral 600 mg, before multiple rifampin doses (Day 1), N = 18, median", "value": 2, "unit": "h"}, {"measurement": "AUC0-24h Comparison (PE %)", "setting": "[1]", "value": 10.75, "unit": "%"}, {"measurement": "AUC0-t Comparison (PE %)", "setting": "[1]", "value": 10.24, "unit": "%"}, {"measurement": "C24h Comparison (PE %)", "setting": "[1]", "value": 2.48, "unit": "%"}, {"measurement": "Cmax Comparison (PE %)", "setting": "[1]", "value": 16.78, "unit": "%"}, {"measurement": "Decrease of AUC0-24h by multiple rifampin intake", "setting": "[2]", "value": 9.3, "unit": "fold"}, {"measurement": "Decrease of Cmax by multiple rifampin intake", "setting": "[2]", "value": 6.0, "unit": "fold"}, {"measurement": "Day effect (rifampin) on tmax", "setting": "statistical analysis Day 12 vs Day 1", "value": "no significant effect; also recorded: no significant impact"}]}]}
